Assay results: PMC8318231, “Rate-of-Kill (RoK) assays to triage large compound sets for Chagas disease drug discovery: Application to GSK Chagas Box” (PLoS Neglected Tropical Diseases, 2021)

Key:
[1] = system: T. cruzi intracellular amastigotes in H9c2 cells; test: Rate-of-Kill (RoK) high-content imaging assay, amastigotes per cell (AM/CELL) and curve descriptors; type: cell-based, Trypanosoma cruzi; parameters: key to ME_24h / ME_48h / ME_72h: % reduction in parasite burden (cidal response); t50pct_MCC50 / t50pct_Cmax: unit not given here; settings: for ME_24h: 24h; for ME_48h: 48h; for ME_72h: 72h; for t50%_Cmax / tlag_Cmax / t50pct_Cmax: at Cmax; for ME_24h (%): maximum effect at 24 h; for ME_24h (%) / ME_48h (%) / ME_72h (%): RoK assay; for ME_48h (%): maximum effect at 48 h; for ME_72h (%): maximum effect at 72 h; for ME 24h (maximum effect at 24 hours, intracellular amastigotes): maximum percentage of parasite burden reduction reached by any concentration
Outline: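 Readouts at each time point are amastigotes per cell and host nuclei count (cytotoxicity), from DRAQ5 high-content imaging. Infection: trypomastigotes on H9c2 at MOI 8 for 18 h. Dosing was 5 μM single point or 11 points, 1/3 steps from 50 μM. Effect scaled between 4 h infected and uninfected controls.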

[2] = system: T. cruzi Tulahuen trypomastigotes; test: T. cruzi trypomastigote assay (Cell Titer-Glo viability, ATP luminescence); type: cell-based, Trypanosoma cruzi; settings: for Trypomastigotes pIC50 48 hours: 48 hours incubation; for Trypomastigotes pIC50 48 hours / Trypomastigotes pIC50 72 hours: pIC50 = -log10 IC50 in molar units; for Trypomastigotes pIC50 72 hours: 72 hours incubation; for 72 pIC50 (trypomastigotes, raw data of Fig 1D): 72 hours, plotted values, censored values given without sign; for 48 pIC50 / 72 pIC50: trypomastigote assay; for 48 pIC50: 48 h; for 72 pIC50: 72 h
Outline: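 Compounds were tested in dose response or once at a final 5 μM against 5 × 10^4 trypomastigotes per well (DMEM, 2% FBS), collected on days 5–8 from LLC-MK2 infected cultures. ATP luminescence via CellTiter-Glo reports live parasites; DMSO defines 0% and cell-free wells 100% effect.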

Row | Compound | ME_24h ([1]; figure 5) | ME_48h ([1]; figure 5) | ME_72h ([1]; figure 5) | MCCE ([1]; RoK curve descriptor) | AM/CELL NORM ([1]; Time 4, sheet figure 4 A) | AM/CELL NORM ([1]; Time 24, sheet figure 4 A) | AM/CELL NORM ([1]; Time 48, sheet figure 4 A) | AM/CELL NORM ([1]; Time 72, sheet figure 4 A) | tlag_Cmax [1] | t50pct_Cmax ([1]; figure 5) | tlag_Cmax ([1]; figure 5) | t50pct_MCC50 ([1]; at MCC50, figure 5) | tlag_MCC50 ([1]; at MCC50, figure 5) | MCCE ([1]; figure 5) | ME_24h (%) [1] | ME_48h (%) [1] | ME_72h (%) [1] | ME 24h (maximum effect at 24 hours, intracellular amastigotes) [1] | Trypomastigotes pIC50 48 hours [2] | Trypomastigotes pIC50 72 hours [2] | further results
1 | Cc1c(C(=O)NCCCCn2ccnc2)oc2c(C)cccc12 [TCMDC-143304] | -97.6451 | -43.6144 | 81.5916 | 0.6 µM | -4.678 | -97.6451 | -43.6144 | 60.7007 | 24.0 h | 72 | 24 | 72 | 48 | 0.6173 | -97.7% | -43.6% | 81.6% | -97.6451% | < 4.3 | < 4.3 | MCC50 ([1]; RoK curve descriptor): 1.9 µM; t50%_Cmax [1]: 72.0 h; t50%_MCC50 ([1]; at MCC50): 72.0 h; tlag_MCC50 ([1]; at MCC50): 48.0 h; MCC50 ([1]; figure 5, in µM): 1.852; 72 pIC50 (trypomastigotes, raw data of Fig 1D) [2]: < 4.3; 48 pIC50 ([2]; figure 1A): < 4.3; 72 pIC50 ([2]; figure 1A): < 4.3; 72 pIC50 ([2]; figure 1B): < 4.3
2 | CS(=O)(=O)NC1CCC(Oc2cc3cnccc3cc2-c2ccsc2)CC1.O=C(O)C(F)(F)F (stereo not drawn) [TCMDC-143302] | 1.036 | 27.0388 | 21.5908 | 0.6 µM | -2.284 | 1.036 | 27.0388 | -4.309 | 4.0 h | 72 | 4 | 72 | 72 | 0.6173 | 1.0% | 27.0% | 21.6% | 1.036% | 4.5 | < 4.3 | MCC50 ([1]; figure 5): 50 µM
3 | CC(=O)Nc1nc(-c2cc(C)ccc2C)c(C)s1 [TCMDC-143207] | 9.377 | 15.7339 | 56.2605 | 0.2 µM | -2.089 | 9.377 | 6.875 | 36.4934 | 4.0 h | 72 | 4 | 72 | 4 | 0.2058 | 9.4% | 15.7% | 56.3% | 9.377% | < 4.3 | < 4.3 | MCC50 ([1]; RoK curve descriptor): 5.6 µM; t50%_MCC50 ([1]; at MCC50): 72.0 h; tlag_MCC50 ([1]; at MCC50): 4.0 h; MCC50 ([1]; figure 5, in µM): 5.556; 72 pIC50 (trypomastigotes, raw data of Fig 1D) [2]: < 4.3; 48 pIC50 ([2]; figure 1A): < 4.3; 72 pIC50 ([2]; figure 1A): < 4.3; 72 pIC50 ([2]; figure 1B): < 4.3
4 | Cc1cccc(N2CCCN(Cc3c[nH]c4ccccc34)CC2)n1 [TCMDC-143185] | 34.1143 | 65.81 | 87.1854 | 0.6 µM | – | – | – | – | 4.0 h | 48 | 4 | 48 | 4 | 0.6173 | 34.1% | 65.8% | 87.2% | 84.3328% | 6.7 | – | MCC50 ([1]; RoK curve descriptor): 1.9 µM; AM/CELL NORM ([1]; Time 4, figure 4 A): -11.6177; AM/CELL NORM ([1]; Time 24, figure 4 A): 35.9083; AM/CELL NORM ([1]; Time 48, figure 4 A): 66.1558; AM/CELL NORM ([1]; Time 72, figure 4 A): 81.0849; t50%_Cmax [1]: 48.0 h; t50%_MCC50 ([1]; at MCC50): 48.0 h; tlag_MCC50 ([1]; at MCC50): 4.0 h; MCC50 ([1]; figure 5, in µM): 1.852
5 | Cc1cccnc1CN1CCN(CCCOc2ccc(-c3ccc(C(N)=O)cc3)cc2)CC1 [TCMDC-143291] | -149.164 | -418.951 | -403.993 | 16.7 µM | 9.834 | -41.6178 | -122.335 | -107.466 | 48.0 h | 72 | 48 | 72 | 72 | 16.6667 | -149.2% | -419.0% | -404.0% | -41.6178% | 4.8 | 4.4 | MCC50 ([1]; figure 5): 50 µM
